According to publication PMC9981719, “A novel designed membrane-active peptide for the control of foodborne Salmonella enterica serovar Typhimurium” (Scientific Reports, 2023):
≈ marks a conversion by molar mass, not a printed value. Where two headings read alike, the source gives them in different places. Where no end group is shown, it is not given here.

Legend:
[1] = tested on: Salmonella Typhimurium ATCC 13311; format: cell-based, Salmonella enterica serovar Typhimurium
Source text: (§1) All tests were done in triplicate.

[2] = tested on: Pseudomonas aeruginosa ATCC 27853; format: cell-based
Source text: as §1

[3] = tested on: Staphylococcus aureus ATCC 25923; format: cell-based; details: for MBC: ATCC 25923, 18 h; for MIC: ATCC 25923, 24 h
Source text: as §1

[4] = tested on: Listeria monocytogenes 10403s; format: cell-based; details: for MIC: 24 h
Source text: as §1

[5] = tested on: Bacillus cereus ATCC 11778; format: cell-based
Source text: as §1

[6] = tested on: Acinetobactero baumanii MT strain; format: cell-based; details: for MIC: 24 h
Source text: as §1

[7] = tested on: Staphylococcus epidermidis ATCC 12228; format: cell-based; details: for MBC: ATCC 12228, 18 h
Source text: as §1

[8] = tested on: Shigella sonnei ATCC11060; format: cell-based; details: triplicate; for MIC: broth microdilution in MHB, 37 °C, 24 h; for MBC: colony count on TSA from non-turbid MIC wells
Source text: as §1

[9] = tested on: all Gram-negative strains; experiment: Geometric mean of MICs and therapeutic index, Gram-negative strains; format: cell-based; details: 4 Gram-negative strains
Source text: as §1

[10] = tested on: L929 mouse fibroblast cells; experiment: In vitro cytotoxicity, MTT assay; format: cell-based; details: 0.98–250 µg/ml, 24 h
Protocol: The cytotoxicity of A11 was evaluated by the 3-(4,5 dimethylthiazol-2-yl)-2,5-diphenyltetrazolium bromide (MTT) assay. L929 mouse fibroblast cells were cultured in Dulbecco's Modified Eagle Medium (DMEM) supplemented with 1% (v/v) of 100 IU/ml penicillin/streptomycin and 10% (v/v) fetal bovine serum (FBS). The cells were maintained in an air atmosphere containing the 5% CO2 under high humidity at 37 °C. L929 cell lines were seeded into a sterile 96-well plate (1 × 10^4 cells/well) then incubated overnight and treated with different concentrations of A11 (0.98–250 µg/ml) for 24 h. Media were removed, and cultured cells were incubated with 100 µl of MTT solution (4 mg/ml) for 4 h at 37 °C. After removal of MTT solution, the formed formazan was dissolved in 100 µl DMSO. Absorbance was measured by microplate reader at 570 nm; untreated cells served as negative control and melittin-treated cells as a positive control. Cell viability was determined following this equation: Cell viability%=ODTreated/ODControl×100

[11] = tested on: all Gram-positive strains; experiment: Geometric mean of MICs and therapeutic index, Gram-positive strains; format: cell-based; details: 4 Gram-positive strains
Source text: as §1

[12] = tested on: panel of human pathogenic bacterial strains; details: summary over all tested strains of Table 1
Protocol: Four Gram-negative bacteria including Salmonella enterica serovar Typhimurium (S. Typhimurium) ATCC 13311 and 16 drug-resistant S. enterica isolates (S. Typhimurium and monophasic variant 4,5,12:i:-), and four Gram-positive bacteria (Staphylococcus aureus ATCC 25923, Staphylococcus epidermidis ATCC 12228, Bacillus cereus ATCC 11778, and Listeria monocytogenes 10403s) were used as test microorganisms. […] All bacterial strains were cultured in a proper medium at 37 °C for 18 h (Table 1).
The minimum inhibitory concentration (MIC) of each peptide was evaluated by broth microdilution assay according to a modification described by the National Committee for Clinical Laboratory Standards (NCCLS)[22]. Mid-logarithmic phase bacterial cells were adjusted to an OD620 of 0.05 in Mueller–Hinton broth (MHB), a universal medium for antibacterial susceptibility testing[23]. Then, 50 µl of bacterial solution was incubated with 50 µl of two-fold serially diluted peptide (0.98–250 µg/ml in PBS) at 37 °C for 24 h with continuous shaking. […] The minimal bactericidal concentration (MBC) of each peptide was determined using a colony count assay. Fifty microliter aliquots of the mixture from each non-turbid well (no growth) from the MIC experiment was spread on Tryptic soy agar (TSA) and cultured overnight at 37 °C. […]

[13] = broth microdilution in MHB, 37 °C, 24 h, triplicate
[14] = colony count on TSA from non-turbid MIC wells, triplicate
[15] = broth microdilution in MHB, 37 °C, triplicate

GVKKVAHKVVKIGRKVAWGAVSGV-NH2 [A4]
MBC ([1]; ATCC 13311, 18 h): 31.25 (31.25) µg/ml | MIC ([1]; ATCC 13311, 24 h): 31.25 (31.25) µg/ml | MBC ([2]; ATCC 27853, 18 h): 250 (250) µg/ml | MIC ([2]; ATCC 27853, 24 h): 250 (250) µg/ml | MBC [3]: > 250 (> 250) µg/ml | MIC [3]: > 250 (> 250) µg/ml | MBC ([4]; 10403s, 18 h): 250 (> 250) µg/ml | MIC ([4]; 10403s): 250 (> 250) µg/ml | MBC ([5]; ATCC 11778, 18 h): > 250 (> 250) µg/ml | MIC ([5]; ATCC 11778, 24 h): > 250 (> 250) µg/ml | MBC ([6]; 18 h): 31.25 µg/mL | MIC [6]: 15.63 µg/mL | MBC [7]: 250 (250) µg/ml | MIC ([7]; ATCC 12228, 24 h): 250 (250) µg/ml

GVKKVAHKVVKIGRKVAW-NH2 [A6]
MBC ([1]; ATCC 13311, 18 h): 62.5 (62.5) µg/ml | MIC ([1]; ATCC 13311, 24 h): 62.5 (62.5) µg/ml | MBC ([2]; ATCC 27853, 18 h): 250 µg/mL | MIC ([2]; ATCC 27853, 24 h): 125 µg/mL | MBC [3]: > 250 (> 250) µg/ml | MIC [3]: > 250 (> 250) µg/ml | MIC [8]: 62.5 µg/mL | MBC [8]: 125 µg/mL | MBC ([4]; 10403s, 18 h): 250 (> 250) µg/ml | MIC ([4]; 10403s): 250 (> 250) µg/ml | MBC ([5]; ATCC 11778, 18 h): > 250 (> 250) µg/ml | MIC ([5]; ATCC 11778, 24 h): > 250 (> 250) µg/ml | MBC ([6]; 18 h): 31.25 (31.25) µg/ml | MIC [6]: 31.25 (31.25) µg/ml | MBC [7]: > 250 (> 250) µg/ml | MIC ([7]; ATCC 12228, 24 h): > 250 (> 250) µg/ml

CC[C@H](C)[C@H](NC(=O)CN)C(=O)NCC(=O)N[C@@H](C)C(=O)N[C@H](C(=O)N[C@@H](CC(C)C)C(=O)N[C@@H](CCCCN)C(=O)N[C@H](C(=O)N[C@@H](CC(C)C)C(=O)N[C@H](C(=O)N[C@H](C(=O)NCC(=O)N[C@@H](CC(C)C)C(=O)N1CCC[C@H]1C(=O)N[C@@H](C)C(=O)N[C@@H](CC(C)C)C(=O)N[C@H](C(=O)N[C@@H](CO)C(=O)N[C@@H](Cc1c[nH]c2ccccc12)C(=O)N[C@H](C(=O)N[C@@H](CCCCN)C(=O)N[C@@H](CCCNC(=N)N)C(=O)N[C@@H](CCCCN)C(=O)N[C@@H](CCCNC(=N)N)C(=O)N[C@@H](CCC(N)=O)C(=O)N[C@@H](CCC(N)=O)C(N)=O)[C@@H](C)CC)[C@@H](C)CC)[C@@H](C)O)[C@@H](C)O)C(C)C)C(C)C [Melittin, reference compound]
MIC ([1]; broth microdilution in MHB, 37 °C, 24 h, visible inspection, triplicate): 3.91 (3.91) µg/ml | MBC ([1]; colony count on TSA from non-turbid MIC wells, overnight 37 °C, triplicate): 3.91 (3.91) µg/ml | GM (Gr.- strains), geometric mean of MIC values from all Gram-negative strains [9]: 6.8 µg/mL | MIC [2, 13]: 15.63 (15.63) µg/ml | MBC [2, 14]: 15.63 (15.63) µg/ml | MIC [8]: 3.91 µg/mL (≈ 1.37 µM) | MBC [8]: 7.81 µg/mL (≈ 2.74 µM) | MIC [4, 15]: 3.91 (3.91) µg/ml | MBC [4, 14]: 3.91 (3.91) µg/ml | MIC [5, 13]: 3.91 µg/mL (≈ 1.37 µM) | MBC [5, 14]: 7.81 µg/mL (≈ 2.74 µM) | MIC [6, 15]: 7.81 (7.81) µg/ml | MBC [6, 14]: 7.81 (7.81) µg/ml | MIC [7, 13]: 3.91 (3.91) µg/ml | cytotoxicity toward L929 cells (cell viability, MTT) [10]: strongly cytotoxic | GM (Gr. + strains), geometric mean of MIC values from all Gram-positive strains [11]: 3.91 µg/mL

GVKKVARKVVKIGRKVAR-NH2 [A9]
MBC ([1]; ATCC 13311, 18 h): 62.5 (62.5) µg/ml | MIC ([1]; ATCC 13311, 24 h): 62.5 (62.5) µg/ml | MBC ([2]; ATCC 27853, 18 h): 250 (250) µg/ml | MIC ([2]; ATCC 27853, 24 h): 250 (250) µg/ml | MBC [3]: > 250 (> 250) µg/ml | MIC [3]: > 250 (> 250) µg/ml | MBC ([4]; 10403s, 18 h): 250 (> 250) µg/ml | MIC ([4]; 10403s): 250 (> 250) µg/ml | MBC ([5]; ATCC 11778, 18 h): > 250 (> 250) µg/ml | MIC ([5]; ATCC 11778, 24 h): > 250 (> 250) µg/ml | MBC ([6]; 18 h): 125 µg/mL | MBC [7]: > 250 µg/mL | MIC ([7]; ATCC 12228, 24 h): 62.5 µg/mL

GNPKVAHCASQIGRSTAWGAVSGA-NH2 [A0, acidocin J1132β, reference compound]
MBC ([1]; ATCC 13311, 18 h): > 250 (> 250) µg/ml | MIC ([1]; ATCC 13311, 24 h): > 250 (> 250) µg/ml | MBC ([2]; ATCC 27853, 18 h): > 250 (> 250) µg/ml | MIC ([2]; ATCC 27853, 24 h): > 250 (> 250) µg/ml | MBC [3]: > 250 (> 250) µg/ml | MIC [3]: > 250 (> 250) µg/ml | MBC ([4]; 10403s, 18 h): > 250 (> 250) µg/ml | MIC ([4]; 10403s): > 250 (> 250) µg/ml | MBC ([5]; ATCC 11778, 18 h): > 250 (> 250) µg/ml | MIC ([5]; ATCC 11778, 24 h): > 250 (> 250) µg/ml | MBC ([6]; 18 h): > 250 (> 250) µg/ml | MIC [6]: > 250 (> 250) µg/ml | MBC [7]: > 250 (> 250) µg/ml | MIC ([7]; ATCC 12228, 24 h): > 250 (> 250) µg/ml | MIC over the tested bacteria [12]: > 250 µg/mL
